This is an account of results in patent US20180243298A1, “TRPV3 MODULATORS” (AbbVie Inc., priority 2015, published 2018).

pIC50: −log10 of the molar value. Some results are limits rather than exact numbers.

The test concerns the target T1, human TRPV3 (Homo sapiens, UniProt Q8NET8).
T1 construct: expressed in transfected cells; host or cells: HEK293
T1 sequence (Q8NET8 1-790): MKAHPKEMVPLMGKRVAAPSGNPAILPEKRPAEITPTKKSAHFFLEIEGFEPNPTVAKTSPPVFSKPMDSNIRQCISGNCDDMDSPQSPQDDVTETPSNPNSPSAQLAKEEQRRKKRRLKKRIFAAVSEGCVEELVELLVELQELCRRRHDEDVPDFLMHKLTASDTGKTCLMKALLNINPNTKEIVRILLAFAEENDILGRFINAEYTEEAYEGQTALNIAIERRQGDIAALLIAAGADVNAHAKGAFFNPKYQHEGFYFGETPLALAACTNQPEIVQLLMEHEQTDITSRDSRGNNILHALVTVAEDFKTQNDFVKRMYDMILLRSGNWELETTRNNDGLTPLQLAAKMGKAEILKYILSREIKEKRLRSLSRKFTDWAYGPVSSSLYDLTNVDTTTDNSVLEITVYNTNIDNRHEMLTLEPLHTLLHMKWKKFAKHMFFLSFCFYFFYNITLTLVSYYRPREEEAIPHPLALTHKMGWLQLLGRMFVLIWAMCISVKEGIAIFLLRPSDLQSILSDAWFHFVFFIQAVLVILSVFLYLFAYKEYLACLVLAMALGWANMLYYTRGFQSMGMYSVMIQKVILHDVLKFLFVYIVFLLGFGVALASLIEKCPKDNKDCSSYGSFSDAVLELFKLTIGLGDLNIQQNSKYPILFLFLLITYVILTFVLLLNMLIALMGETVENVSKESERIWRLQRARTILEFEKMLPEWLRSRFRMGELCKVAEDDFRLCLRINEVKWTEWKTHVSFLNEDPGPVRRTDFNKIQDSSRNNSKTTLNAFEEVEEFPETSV
Description: Calcium flux assay (FLIPR TETRA), recombinant HEK293 cells expressing TRPV3, 2-APB response. It counts as cell-based. As to conditions: 2-APB at its EC80. The protocol: (i) In Vitro Methods-Calcium Flux Assays:
Experiments were conducted using the FLIPR TETRA®. On the day prior to the experiment, recombinant HEK293 cells that stably express human and mouse TRPV3 were removed from tissue culture flasks and plated in growth medium at 20,000 cells/well into black-walled clear-bottom 384-well BIOCOAT™ poly-D-lysine assay plates (BD Biosciences, Bedford, Mass.) using a MULTIDROP® dispenser (ThermoScientific, Waltham, Mass.). On the day of the experiment, growth medium was removed, and the no-wash FLIPR® Calcium-4 dye (λEX=470-495 nm, λEM=515-575 nm; Molecular Devices, Sunnyvale, Calif.) was added to each well using the MULTIDROP® dispenser. Cells were incubated for 90-120 minutes in the dark. The compounds were dissolved in DMSO to prepare a 10 mM stock solution. The intensity of the fluorescence was captured and digitally transferred to an interfaced PC. The peak increase in fluorescence over baseline, measured in relative fluorescence units, was calculated and expressed as the percentage of the maximal 2-APB (2-aminoethoxyldiphenyl borate) response (in the absence of compound). The concentration of 2-APB corresponds to its EC80.
On the technique in general: A change in cytosolic calcium serves as a functional read-out for many receptors and channels.
Regarding “4,6-dimethoxy-N-[5-(2-methoxypyrimidin-5-yl)-4-(trifluoromethyl)-1,3-thiazol-2-yl]pyrimidine-5-carboxamide [Example 183]”, the pIC50 (in general, the negative decadic logarithm of the IC50, by convention in mol/L) was 6.30 to 7.00.
Next, `COc1ncnc(OC)c1C(=O)Nc1nc(-c2ccc(C(F)(F)F)cn2)c(C(C)O)s1` (single isomer, unassigned) [Example 83, N-{5-[(1R*)-1-hydroxyethyl]-4-[5-(trifluoromethyl)pyridin-2-yl]-1,3-thiazol-2-yl}-4,6-dimethoxypyrimidine-5-carboxamide]: 6.30 to 7.00; `COc1ncnc(OC)c1C(=O)Nc1nc(-c2ccc(C(F)(F)F)cn2)c(C(C)O)s1` (single isomer, unassigned) [Example 84, N-{5-[(1S*)-1-hydroxyethyl]-4-[5-(trifluoromethyl)pyridin-2-yl]-1,3-thiazol-2-yl}-4,6-dimethoxypyrimidine-5-carboxamide]: 6.30 to 7.00.
As to `COc1ncnc(OC)c1C(=O)Nc1nc(C(F)(F)F)c(C2CCCOC2)s1` (single isomer, unassigned) [Example 149, 4,6-dimethoxy-N-{5-[(3S*)-tetrahydro-2H-pyran-3-yl]-4-(trifluoromethyl)-1,3-thiazol-2-yl}pyrimidine-5-carboxamide], the pIC50 was less than 6.00.
For `COc1ncnc(OC)c1C(=O)Nc1nc(C(F)(F)F)c([C@@H]2CCCOC2)s1` (single isomer, unassigned) [Example 150], the pIC50 is 6.30 to 7.00.
Next, `COc1ncnc(OC)c1C(=O)Nc1nc(C(F)(F)F)c(C)s1` [Example 1, 4,6-dimethoxy-N-[5-methyl-4-(trifluoromethyl)-1,3-thiazol-2-yl]pyrimidine-5-carboxamide]: 7.00 to 7.30.
`COc1ncnc(OC)c1C(=O)Nc1nc(C(F)(F)F)c(I)s1` [Example 2, N-[5-iodo-4-(trifluoromethyl)-1,3-thiazol-2-yl]-4,6-dimethoxypyrimidine-5-carboxamide]: the pIC50 is greater than 7.30.
Turning to `COc1ncnc(OC)c1C(=O)Nc1nc(C(F)(F)F)cs1` [Example 3, 4,6-dimethoxy-N-[4-(trifluoromethyl)-1,3-thiazol-2-yl]pyrimidine-5-carboxamide], the pIC50 is 6.30 to 7.00.
With `COc1ncnc(OC)c1C(=O)Nc1nc(C(F)(F)F)c(-c2ccc(Cl)cc2)s1` [Example 4, N-[5-(4-chlorophenyl)-4-(trifluoromethyl)-1,3-thiazol-2-yl]-4,6-dimethoxypyrimidine-5-carboxamide] the figure was 7.00 to 7.30; with `CCOc1ncnc(OCC)c1C(=O)Nc1nc(C(F)(F)F)c(-c2ccc(Cl)cc2)s1` [Example 5, N-[5-(4-chlorophenyl)-4-(trifluoromethyl)-1,3-thiazol-2-yl]-4,6-diethoxypyrimidine-5-carboxamide], 6.00 to 6.30; with `CCc1sc(NC(=O)c2c(OC)ncnc2OC)nc1C(F)(F)F` [Example 6, N-[5-ethyl-4-(trifluoromethyl)-1,3-thiazol-2-yl]-4,6-dimethoxypyrimidine-5-carboxamide], greater than 7.30.
Next, `CCOc1ncnc(OCC)c1C(=O)Nc1nc(C(F)(F)F)c(C#N)s1` [Example 7, N-[5-cyano-4-(trifluoromethyl)-1,3-thiazol-2-yl]-4,6-diethoxypyrimidine-5-carboxamide]: 6.00 to 6.30.
Next, `COc1ncnc(OC)c1C(=O)Nc1nc(C(F)(F)F)c(-c2ccc(F)nc2)s1` [Example 8, N-[5-(6-fluoropyridin-3-yl)-4-(trifluoromethyl)-1,3-thiazol-2-yl]-4,6-dimethoxypyrimidine-5-carboxamide]: 7.00 to 7.30; `COc1ncnc(OC)c1C(=O)Nc1nc(C)c(C)s1` [Example 9, N-(4,5-dimethyl-1,3-thiazol-2-yl)-4,6-dimethoxypyrimidine-5-carboxamide]: less than 6.00.
Turning to `COc1ncnc(OC)c1C(=O)Nc1nc(C(F)(F)F)c(C#C[Si](C)(C)C)s1` [Example 10, 4,6-dimethoxy-N-{4-(trifluoromethyl)-5-[(trimethylsilyl)ethynyl]-1,3-thiazol-2-yl}pyrimidine-5-carboxamide], the pIC50 was greater than 7.30.
Regarding `C#Cc1sc(NC(=O)c2c(OC)ncnc2OC)nc1C(F)(F)F` [Example 11, N-[5-ethynyl-4-(trifluoromethyl)-1,3-thiazol-2-yl]-4,6-dimethoxypyrimidine-5-carboxamide], the negative logarithm of the IC50 (pIC50) is greater than 7.30.
Next, `COc1ncnc(OC)c1C(=O)Nc1nc(C(F)(F)F)c(C#CCO)s1` [Example 12, N-[5-(3-hydroxyprop-1-yn-1-yl)-4-(trifluoromethyl)-1,3-thiazol-2-yl]-4,6-dimethoxypyrimidine-5-carboxamide]: 6.30 to 7.00.
With `COc1ncnc(OC)c1C(=O)Nc1nc(C(F)(F)F)c(CCCO)s1` [Example 13, N-[5-(3-hydroxypropyl)-4-(trifluoromethyl)-1,3-thiazol-2-yl]-4,6-dimethoxypyrimidine-5-carboxamide] the figure was less than 6.00.
Next, `COc1ncnc(OC)c1C(=O)Nc1nc(C(F)(F)F)c(C#CC2CC2)s1` [Example 14, N-[5-(cyclopropylethynyl)-4-(trifluoromethyl)-1,3-thiazol-2-yl]-4,6-dimethoxypyrimidine-5-carboxamide]: greater than 7.30; `COCC#Cc1sc(NC(=O)c2c(OC)ncnc2OC)nc1C(F)(F)F` [Example 15, 4,6-dimethoxy-N-[5-(3-methoxyprop-1-yn-1-yl)-4-(trifluoromethyl)-1,3-thiazol-2-yl]pyrimidine-5-carboxamide]: greater than 7.30.
As for `COCCCc1sc(NC(=O)c2c(OC)ncnc2OC)nc1C(F)(F)F` [Example 16, 4,6-dimethoxy-N-[5-(3-methoxypropyl)-4-(trifluoromethyl)-1,3-thiazol-2-yl]pyrimidine-5-carboxamide], the pIC50 is greater than 7.30.
With `COC/C=C\c1sc(NC(=O)c2c(OC)ncnc2OC)nc1C(F)(F)F` [Example 17, 4,6-dimethoxy-N-{5-[(1Z)-3-methoxyprop-1-en-1-yl]-4-(trifluoromethyl)-1,3-thiazol-2-yl}pyrimidine-5-carboxamide] the figure was greater than 7.30; with `COC/C=C/c1sc(NC(=O)c2c(OC)ncnc2OC)nc1C(F)(F)F` [Example 18, 4,6-dimethoxy-N-{5-[(1E)-3-methoxyprop-1-en-1-yl]-4-(trifluoromethyl)-1,3-thiazol-2-yl}pyrimidine-5-carboxamide], greater than 7.30.
With `COc1ncnc(OC)c1C(=O)Nc1nc(C(F)(F)F)c(C#CC(C)(C)O)s1` [Example 19, N-[5-(3-hydroxy-3-methylbut-1-yn-1-yl)-4-(trifluoromethyl)-1,3-thiazol-2-yl]-4,6-dimethoxypyrimidine-5-carboxamide], the pIC50 was 7.00 to 7.30.
Next, `COc1ncnc(OC)c1C(=O)Nc1nc(C(F)(F)F)c(CCC(C)(C)O)s1` [Example 20, N-[5-(3-hydroxy-3-methylbutyl)-4-(trifluoromethyl)-1,3-thiazol-2-yl]-4,6-dimethoxypyrimidine-5-carboxamide]: 6.00 to 6.30.
With `CCOC(=O)c1sc(NC(=O)c2c(OC)ncnc2OC)nc1C(F)(F)F` [Example 21, ethyl 2-{[(4,6-dimethoxypyrimidin-5-yl)carbonyl]amino}-4-(trifluoromethyl)-1,3-thiazole-5-carboxylate] the figure was greater than 7.30.
